Assay results as given in patent publication US12421240B2, “Hydropyrazino[1,2-d][1,4]diazepine compounds for the treatment of autoimmune disease” (Hoffmann-La Roche Inc., priority 2019, dated 2025).

Target: T1, human TLR7 (Homo sapiens, UniProt Q9NYK1)
T1 sequence (Q9NYK1 27-1049): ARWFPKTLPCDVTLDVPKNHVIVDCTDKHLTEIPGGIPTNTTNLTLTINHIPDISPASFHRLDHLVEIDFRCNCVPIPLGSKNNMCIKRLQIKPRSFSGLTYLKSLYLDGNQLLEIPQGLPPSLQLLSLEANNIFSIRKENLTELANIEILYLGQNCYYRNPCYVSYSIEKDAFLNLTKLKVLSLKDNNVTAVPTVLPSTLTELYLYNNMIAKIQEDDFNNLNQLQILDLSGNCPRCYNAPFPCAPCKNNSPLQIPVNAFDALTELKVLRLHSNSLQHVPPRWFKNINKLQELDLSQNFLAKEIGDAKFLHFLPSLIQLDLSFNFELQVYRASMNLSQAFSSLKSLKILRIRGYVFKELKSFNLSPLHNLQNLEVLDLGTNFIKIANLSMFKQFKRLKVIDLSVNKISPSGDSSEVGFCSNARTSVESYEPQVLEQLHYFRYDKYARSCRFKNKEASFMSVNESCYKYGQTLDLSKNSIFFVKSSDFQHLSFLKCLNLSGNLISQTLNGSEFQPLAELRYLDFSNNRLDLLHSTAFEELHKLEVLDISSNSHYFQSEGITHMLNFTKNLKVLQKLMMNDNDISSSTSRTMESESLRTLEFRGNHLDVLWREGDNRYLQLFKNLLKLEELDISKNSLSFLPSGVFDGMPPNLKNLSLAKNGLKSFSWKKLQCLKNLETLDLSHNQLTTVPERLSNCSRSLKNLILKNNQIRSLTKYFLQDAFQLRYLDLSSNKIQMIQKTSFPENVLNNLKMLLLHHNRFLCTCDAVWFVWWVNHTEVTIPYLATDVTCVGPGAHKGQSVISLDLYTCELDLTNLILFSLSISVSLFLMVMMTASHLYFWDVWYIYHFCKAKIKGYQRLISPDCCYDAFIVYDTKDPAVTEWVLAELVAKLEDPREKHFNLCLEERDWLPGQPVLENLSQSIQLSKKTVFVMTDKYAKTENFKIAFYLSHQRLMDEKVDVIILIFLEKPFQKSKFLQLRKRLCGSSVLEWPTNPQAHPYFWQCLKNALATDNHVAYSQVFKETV
Experiment: HEK293-Blue-hTLR-7 cells assay (SEAP reporter, R848 stimulation)
Assay type: cell-based
Details: HEK293-Blue-hTLR7 cells, R848 ligand, 20 hrs; read-out: HEK/hTLR7 IC50
Method: The following tests were carried out in order to determine the activity of the compounds of formula (I), (Ia) or (Ib) in HEK293-Blue-hTLR-7/8/9 cells assay.
HEK293-Blue-hTLR-7 Cells Assay:
A stable HEK293-Blue-hTLR-7 cell line was purchased from InvivoGen (Cat. #: hkb-htlr7, San Diego, California, USA). These cells were originally designed for studying the stimulation of human TLR7 by monitoring the activation of NF-κB. A SEAP (secreted embryonic alkaline phosphatase) reporter gene was placed under the control of the IFN-β minimal promoter fused to five NF-κB and AP-1-binding sites. The SEAP was induced by activating NF-κB and AP-1 via stimulating HEK-Blue hTLR7 cells with TLR7 ligands. Therefore the reporter expression was declined by TLR7 antagonist under the stimulation of a ligand, such as R848 (Resiquimod), for incubation of 20 hrs. The cell culture supernatant SEAP reporter activity was determined using QUANTI-Blue™ kit (Cat. #: rep-qb1, Invivogen, San Diego, Ca., USA) at a wavelength of 640 nm, a detection medium that turns purple or blue in the presence of alkaline phosphatase.
HEK293-Blue-hTLR7 cells were incubated at a density of 250,000-450,000 cells/mL in a volume of 170 μL in a 96-well plate in Dulbecco's Modified Eagle's medium (DMEM) containing 4.5 g/L glucose, 50 U/mL penicillin, […], […], 2 mM L-glutamine, 10% (v/v) heat-inactivated fetal bovine serum with addition of 20 μL test compound in a serial dilution in the presence of final DMSO at 1% and 10 μL of 20 uM R848 in above DMEM, perform incubation under 37° C. in a CO2 incubator for 20 hrs. Then 20 μL of the supernatant from each well was incubated with 180 μL Quanti-blue substrate solution at 37° C. for 2 hrs and the absorbance was read at 620655 nm using a spectrophotometer. The signaling pathway that TLR7 activation leads to downstream NF-κB activation has been widely accepted, and therefore similar reporter assay was modified for evaluating TLR7 antagonist.

| Compound | IC50 [nM] |
| --- | --- |
| C[C@@H]1CN(c2ccc(C#N)c3ncccc23)C[C@@H]2CCN(c3cnc(N4CCNCC4)nc3)CCN21 [Example 2, 5-[(4R,10aS)-4-methyl-8-(2-piperazin-1-ylpyrimidin-5-yl)-1,3,4,6,7,9,10,10a-octahydropyrazino[1,2-d][1,4]diazepin-2-yl]quinoline-8-carbonitrile] | 58.6 |
| C[C@@H]1CN(c2ccc(C#N)c3ncccc23)C[C@@H]2CCN(c3ccc4c(n3)CNCC4)CCN21 [Example 5, 5-[(4R,10aS)-4-methyl-8-(5,6,7,8-tetrahydro-1,7-naphthyridin-2-yl)-1,3,4,6,7,9,10,10a-octahydropyrazino[1,2-d][1,4]diazepin-2-yl]quinoline-8-carbonitrile] | 38.5 |
| C[C@@H]1CN(c2ccc(C#N)c3ncccc23)C[C@@H]2CCN(c3ccc4c(n3)CCNC4)CCN21 [Example 6, 5-[(4R,10aS)-4-methyl-8-(5,6,7,8-tetrahydro-1,6-naphthyridin-2-yl)-1,3,4,6,7,9,10,10a-octahydropyrazino[1,2-d][1,4]diazepin-2-yl]quinoline-8-carbonitrile] | 48.1 |
| C[C@@H]1CN(c2ccc(C#N)c3ncccc23)C[C@@H]2CCN(Cc3cnc4c(c3)CNCC4)CCN21 [Example 10, 5-[(4R,10aS)-4-methyl-8-(5,6,7,8-tetrahydro-1,6-naphthyridin-3-ylmethyl)-1,3,4,6,7,9,10,10a-octahydropyrazino[1,2-d][1,4]diazepin-2-yl]quinoline-8-carbonitrile] | 9.3 |
| C[C@@H]1CN(c2ccc(C#N)c3ncccc23)C[C@@H]2CCN(Cc3ccc4c(c3)CCNC4)CCN21 [Example 11, 5-[(4R,10aS)-4-methyl-8-(1,2,3,4-tetrahydroisoquinolin-6-ylmethyl)-1,3,4,6,7,9,10,10a-octahydropyrazino[1,2-d][1,4]diazepin-2-yl]quinoline-8-carbonitrile] | 6.1 |
| C[C@@H]1CN(c2ccc(C#N)c3ncccc23)C[C@@H]2CCN(Cc3ncc(N4CCNCC4)cn3)CCN21 [Example 13, 5-[(4R,10aS)-4-methyl-8-[(5-piperazin-1-ylpyrimidin-2-yl)methyl]-1,3,4,6,7,9,10,10a-octahydropyrazino[1,2-d][1,4]diazepin-2-yl]quinoline-8-carbonitrile] | 49.6 |
| C[C@@H]1CN(c2ccc(C#N)c3ncccc23)C[C@@H]2CCN(Cc3cnc(N4CCNCC4)nc3)CCN21 [Example 14, 5-[(4R,10aS)-4-methyl-8-[(2-piperazin-1-ylpyrimidin-5-yl)methyl]-1,3,4,6,7,9,10,10a-octahydropyrazino[1,2-d][1,4]diazepin-2-yl]quinoline-8-carbonitrile] | 1.8 |
| C[C@@H]1CN(c2ccc(C#N)c3ncccc23)C[C@@H]2CCN(Cc3cnc(N4CCNCC4)cn3)CCN21 [Example 15, 5-[(4R,10aS)-4-methyl-8-[(5-piperazin-1-ylpyrazin-2-yl)methyl]-1,3,4,6,7,9,10,10a-octahydropyrazino[1,2-d][1,4]diazepin-2-yl]quinoline-8-carbonitrile] | 2.2 |
| C[C@@H]1CN(c2ccc(C#N)c3ncccc23)C[C@@H]2CCN(Cc3ccc(N4CCNCC4)nc3)CCN21 [Example 17, 5-[(4R,10aS)-4-methyl-8-[(6-piperazin-1-yl-3-pyridyl)methyl]-1,3,4,6,7,9,10,10a-octahydropyrazino[1,2-d][1,4]diazepin-2-yl]quinoline-8-carbonitrile] | 1.2 |

The remaining compounds from weak to strong by IC50, led by results:

| IC50 [nM] | Compound |
| --- | --- |
| 88.5 | C[C@@H]1CN(c2ccc(C#N)c3ncccc23)C[C@@H]2CCN(c3ccc(N4CCNCC4)nc3)CCN21 [Example 1, 5-[(4R,10aS)-4-methyl-8-(6-piperazin-1-yl-3-pyridyl)-1,3,4,6,7,9,10,10a-octahydropyrazino [1,2-d][1,4]diazepin-2-yl]quinoline-8-carbonitrile] |
| 61.3 | C[C@@H]1CN(c2ccc(C#N)c3ncccc23)C[C@@H]2CCN(c3cc4c(cn3)CNCC4)CCN21 [Example 7, 5-[(4R,10aS)-4-methyl-8-(5,6,7,8-tetrahydro-2,7-naphthyridin-3-yl)-1,3,4,6,7,9,10,10a-octahydropyrazino[1,2-d][1,4]diazepin-2-yl]quinoline-8-carbonitrile] |
| 54 | C[C@@H]1CN(c2ccc(C#N)c3ncccc23)C[C@@H]2CCN(c3ccc([C@H]4CNCCO4)cc3)CCN21 [Example 3, 5-[(4R,10aS)-4-methyl-8-[4-[(2S)-morpholin-2-yl]phenyl]-1,3,4,6,7,9,10,10a-octahydropyrazino[1,2-d][1,4]diazepin-2-yl]quinoline-8-carbonitrile] |
| 17.8 | C[C@@H]1CN(c2ccc(C#N)c3ncccc23)C[C@@H]2CCN(c3cncc4c3CCNC4)CCN21 [Example 4, 5-[(4R,10aS)-4-methyl-8-(5,6,7,8-tetrahydro-2,7-naphthyridin-4-yl)-1,3,4,6,7,9,10,10a-octahydropyrazino[1,2-d][1,4]diazepin-2-yl]quinoline-8-carbonitrile] |
| 14.3 | C[C@@H]1CN(c2ccc(C#N)c3ncccc23)C[C@@H]2CCN(Cc3cc4c(cn3)CNCC4)CCN21 [Example 8, 5-[(4R,10aS)-4-methyl-8-(5,6,7,8-tetrahydro-2,7-naphthyridin-3-ylmethyl)-1,3,4,6,7,9,10,10a-octahydropyrazino[1,2-d][1,4]diazepin-2-yl]quinoline-8-carbonitrile] |
| 12.1 | C[C@@H]1CN(c2ccc(C#N)c3ncccc23)C[C@@H]2CCN(Cc3cccc(N4CCNCC4)n3)CCN21 [Example 18, 5-[(4R,10aS)-4-methyl-8-[(6-piperazin-1-yl-2-pyridyl)methyl]-1,3,4,6,7,9,10,10a-octahydropyrazino[1,2-d][1,4]diazepin-2-yl]quinoline-8-carbonitrile] |
| 11.1 | C[C@@H]1CN(c2ccc(C#N)c3ncccc23)C[C@@H]2CCN(Cc3cncc(N4CCNCC4)c3)CCN21 [Example 16, 5-[(4R,10aS)-4-methyl-8-[(5-piperazin-1-yl-3-pyridyl)methyl]-1,3,4,6,7,9,10,10a-octahydropyrazino[1,2-d][1,4]diazepin-2-yl]quinoline-8-carbonitrile] |
| 8.2 | C[C@@H]1CN(c2ccc(C#N)c3ncccc23)C[C@@H]2CCN(Cc3cc4c(cn3)CCNC4)CCN21 [Example 9, 5-[(4R,10aS)-4-methyl-8-(5,6,7,8-tetrahydro-2,6-naphthyridin-3-ylmethyl)-1,3,4,6,7,9,10,10a-octahydropyrazino[1,2-d][1,4]diazepin-2-yl]quinoline-8-carbonitrile] |
| 4.8 | C[C@@H]1CN(c2ccc(C#N)c3ncccc23)C[C@@H]2CCN(Cc3ccc(N4CCNCC4)cn3)CCN21 [Example 19, 5-[(4R,10aS)-4-methyl-8-[(5-piperazin-1-yl-2-pyridyl)methyl]-1,3,4,6,7,9,10,10a-octahydropyrazino[1,2-d][1,4]diazepin-2-yl]quinoline-8-carbonitrile] |
| 4.5 | C[C@@H]1CN(c2ccc(C#N)c3ncccc23)C[C@@H]2CCN(Cc3ccc4c(c3)CNCC4)CCN21 [Example 12, 5-[(4R,10aS)-4-methyl-8-(1,2,3,4-tetrahydroisoquinolin-7-ylmethyl)-1,3,4,6,7,9,10,10a-octahydropyrazino[1,2-d][1,4]diazepin-2-yl]quinoline-8-carbonitrile] |
